Experimental data taken from patent US12496329B2, “Methods of using and compositions including an incretin analog” (Eli Lilly and Company, priority 2021, dated 2025).
Marks after values point to notes of the source that are not given here.

Assay: MAD study in individuals with diabetes: pharmacodynamics (OGTT, glucose, HbA1c, body weight, appetite VAS)
Assay type: in vivo, human
Design: OGIS Index, change from baseline / Disposition Index, change from baseline: unit not given here
Details: for Disposition Index, change from baseline / HOMA2-B, change from baseline / HOMA2-IR, change from baseline / Insulin Sensitivity Matsuda Index, change from baseline / Insulinogenic Index, change from baseline / OGIS Index, change from baseline / OGTT C-peptide AUC (0-2 hr), change from baseline / OGTT GCG AUC (0-2 hr), change from baseline / OGTT glucose AUC (0-2 hr), change from baseline / OGTT insulin AUC (0-2 hr), change from baseline / Daily mean plasma glucose, change from baseline / HbA1c, change from baseline: 1.5 mg Dula
From the text: Studies are designed to evaluate the safety, tolerability, PD and PK of the GGG tri-receptor agonist (SEQ ID NO:1) in individuals with diabetes. The MAD study is a randomized, investigator- and participant-blind, placebo-controlled, multiple-ascending dose, single-site study conducted in individuals with diabetes (i.e., females or males aged 20-70 years, inclusive, with T2DM for at least 3 months and HbA1c at lead-in and screening of ≥7.0% and ≤10.5% and treated with diet and exercise alone or a stable dose of metformin for at least 3 months prior to screening, with stable body weight for 3 months prior to randomization and with a BMI of 23-50 kg/m^2 at screening).
Dose escalation of the GGG tri-receptor agonist is assessed over 12 weeks in cohorts with a starting dose of 0.5 mg. One cohort of 13 individuals is administered 0.5 mg for 12 weeks. A second cohort of 13 individuals is administered 1.5 mg for 12 weeks. A third cohort of 15 individuals is administered 3.0 mg for 12 weeks. A fourth cohort of 15 individuals is administered 3.0 mg for 4 weeks and then administered 6.0 mg for 8 weeks. A fifth cohort of 16 individuals is administered 3.0 mg for 2 weeks, administered 6.0 mg for 2 weeks, administered 9.0 mg for 4 weeks, and then administered 12 mg for 4 weeks. Alternate dose increment steps may be introduced based on emerging safety and tolerability data from the preceding cohorts, and the dose increment steps can be reduced. As a non-limiting example, in Cohort 4, escalation from starting dose of 3 mg may occur via a step-through dose of 4.5 mg before attaining 6 mg, in Cohort 5, escalation from starting dose of 3 to 12 mg may occur via an additional step through dose level of 4.5 mg, prior to the planned doses 6 and 9 mg. In addition to these proposed alternate regimens in Cohort 4 and Cohort 5, planned dose for escalation between cohorts and within cohorts may be further reduced if warranted by safety or tolerability data.
C-peptide, glucagon, glucose and insulin are measured for an oral glucose tolerance test (OGTT) during the study using methods known in the art for each of the analytes. In addition, HbA1c is measured at Days 1, 29, 57, 78 and 85, as well as at Week 16. The following parameters are derived from the OGTT to assess insulin resistance and β cell function: Homeostatic model assessment (HOMA)-B, HOMA-IR, insulinogenic index, insulin sensitivity (Matsuda Index) and oral glucose insulin sensitivity (OGIS).
Insulin sensitivity is calculated as per the below equation: […]
Insulin sensitivity (Matsuda Index) is calculated as per the below equation: […]
Disposition index is calculated as (IGI*ISI).
OGIS is calculated as per the below equation: […]
Satiety VAS is measured after fasting on Days 1, 8, 15, 22, 29, 36, 43, 50, 57, 64, 71, 78 and 80, as well as at Week 16. Appetite sensations are assessed using a VAS for parameters of hunger, fullness, satiety and prospective food intake, and an overall appetite score is calculated as described above in the SAD study.

[1] = 1.5 mg dulaglutide, 12-week treatment

With dulaglutide the “Disposition Index, change from baseline” value (Day 2) was 0.0812, the “HOMA2-B, change from baseline” value (Day 2) was 31.2 and the “HOMA2-IR, change from baseline” value (Day 2) was 0.360. For the same substance, the “Insulin Sensitivity Matsuda Index, change from baseline” value (Day 2) was −0.0208, the “Insulinogenic Index, change from baseline” value (from here on “Insulinogenic Index, change”) (Day 2) was 0.119 and the “OGIS Index, change from baseline” value (Day 2) was 23.5. For the same substance, the “OGTT C-peptide AUC (0-2 hr), change from baseline” value (Day 2) was 879 pmol·h/L, the “OGTT GCG AUC (0-2 hr), change from baseline” value (“OGTT GCG AUC (0-2 hr), change” below) (Day 2) was -1.21 pmol·h/L and the “OGTT glucose AUC (0-2 hr), change from baseline” value (Day 2) was -9.10 mmol·h/L. The “OGTT insulin AUC (0-2 hr), change from baseline” value (Day 2) was 322 pmol·h/L, the “Daily mean plasma glucose, change from baseline” value (Day 3) was −2.60* mmol/L and the “HbA1c, change from baseline” value (Day 29) was −0.646%. For the same substance, the “Disposition Index, change from baseline” value (Day 30) was 0.0866, the “HOMA2-B, change from baseline” value (Day 30) was 42.2 and the “HOMA2-IR, change from baseline” value (Day 30) was 0.480. The “Insulin Sensitivity Matsuda Index, change from baseline” value (Day 30) was −0.476, the “Insulinogenic Index, change” value (Day 30) was 0.130 and the “OGIS Index, change from baseline” value (Day 30) was 19.4. The “OGTT C-peptide AUC (0-2 hr), change from baseline” value (Day 30) was 1350 pmol·h/L, the “OGTT GCG AUC (0-2 hr), change” value (Day 30) was -4.52 pmol·h/L and the “OGTT glucose AUC (0-2 hr), change from baseline” value (Day 30) was -10.6 mmol·h/L. The “OGTT insulin AUC (0-2 hr), change from baseline” value (Day 30) was 519 pmol·h/L, the “Daily mean plasma glucose, change from baseline” value (Day 31) was −3.89* mmol/L and the “HbA1c, change from baseline” value (Day 57) was −0.997%. The “Daily mean plasma glucose, change from baseline” value (Day 59) was −3.21* mmol/L, the “HbA1c, change from baseline” value (Day 78) was −1.07% and the “Disposition Index, change from baseline” value (Day 79) was 0.0481. The “HOMA2-B, change from baseline” value (Day 79) was 25.9, the “HOMA2-IR, change from baseline” value (Day 79) was 0.600 and the “Insulin Sensitivity Matsuda Index, change from baseline” value (Day 79) was −1.14. The “Insulinogenic Index, change” value (Day 79) was 0.105, the “OGIS Index, change from baseline” value (Day 79) was 38.1 and the “OGTT C-peptide AUC (0-2 hr), change from baseline” value (Day 79) was 354 pmol·h/L. For the same substance, the “OGTT GCG AUC (0-2 hr), change” value (Day 79) was -1.28 pmol·h/L, the “OGTT glucose AUC (0-2 hr), change from baseline” value (Day 79) was -8.44 mmol·h/L and the “OGTT insulin AUC (0-2 hr), change from baseline” value (Day 79) was 188 pmol·h/L. The “Daily mean plasma glucose, change from baseline” value (Day 80) was −3.73* mmol/L, the “HbA1c, change from baseline” value (Day 85) was −0.960% and the “HbA1c, change from baseline” value (Day 106) was −0.538%. The fullness scores [1] was “increase from baseline”, the hunger scores [1] was “decrease from baseline” and the “prospective food consumption scores” value [1] was “greatest decreases from baseline”. For the same substance, the satiety scores [1] was “increase from baseline”, the “maximum decrease from baseline in mean body weight” value (1.5 mg, 12-weeks treatment) was 1.3 kg and the “decrease from baseline in mean waist circumference” value (1.5 mg, Day 85) was 4.9 cm.
